Assay results reported in US8859535B2, “Hydroxy substituted isoquinolinone derivatives” (Novartis AG, priority 2011, dated 2014).

Tests used:
[1] = target: T1, human MDM2 protein (amino acids 2-188) (Homo sapiens, UniProt Q00987); assay: p53-MDM2 TR-FRET assay (p53-MDM2 Assay 1); type: binding; conditions: 1.25 nM MDM2-biotinylated, 10 nM Cy5-p53 peptide; read-out: IC50 (μM) of p53-Hdm2 inhibition (TR-FRET) Assay 1
T1 construct: human MDM2 protein (amino acids 2-188); made in house
Method in brief: (§1)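 Peptide displacement read as 665/620 nm TR-FRET ratio (excitation 340 nm) after 15 min room temperature with 10 nM Cy5-p53 aa18-26, following 15 min preincubation of Eu-streptavidin (0.625 nM) with biotinylated MDM4 aa 2-185 (2.5 nM) or MDM2 aa 2-188 (1.25 nM); IC50 curve-fitted. MDM2 Assay 2: MDM2 and Eu-streptavidin each 0.1 nM.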

[2] = target: T2, human MDM4 protein (amino acids 2-185) (Homo sapiens, UniProt O15151); assay: p53-MDM4 TR-FRET assay (p53-MDM4 Assay 1); type: binding; conditions: 2.5 nM MDM4-biotinylated, 10 nM Cy5-p53 peptide; read-out: IC50 (μM) of p53-Hdm4 inhibition (TR-FRET) Assay 1
T2 construct: human MDM4 protein (amino acids 2-185); made in house
T2 sequence (O15151 2-185): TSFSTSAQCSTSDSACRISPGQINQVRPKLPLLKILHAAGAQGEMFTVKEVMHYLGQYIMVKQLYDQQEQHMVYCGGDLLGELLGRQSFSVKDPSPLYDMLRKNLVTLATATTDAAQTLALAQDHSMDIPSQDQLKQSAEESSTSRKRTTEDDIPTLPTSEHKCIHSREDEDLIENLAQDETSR
Method in brief: as §1

T1 sequence (Q00987 2-188): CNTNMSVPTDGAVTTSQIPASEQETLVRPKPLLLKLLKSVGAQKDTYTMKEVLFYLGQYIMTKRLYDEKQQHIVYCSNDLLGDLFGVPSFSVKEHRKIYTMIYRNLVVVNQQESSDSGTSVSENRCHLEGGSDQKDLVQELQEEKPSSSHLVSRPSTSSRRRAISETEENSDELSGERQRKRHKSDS

| SMILES | IC50 [1] [µM] | IC50 [2] [µM] |
| --- | --- | --- |
| CNC(=O)COc1cc2c(cc1OC(C)C)[C@H](c1ccc(Cl)cc1)N(c1ccc(C(C)(O)C3CCOCC3)cc1)C(=O)C2 (stereo partly drawn) [Example 148, 2-((S)-1-(4-Chloro-phenyl)-2-{4-[1-hydroxy-1-(tetrahydro-pyran-4-yl)-ethyl]-phenyl}-7-isopropoxy-3-oxo-1,2,3,4-tetrahydro-isoquinolin-6-yloxy)-N-methyl-acetamide] | 0.0067 | 2.64 |
| COc1cc2c(cc1OC(C)C)[C@H](c1ccc(Cl)cc1)N(c1ccc(C(C)(O)C3CN(CCC(F)(F)F)C3)cc1)C(=O)C2 (stereo partly drawn) [Example 69, (S)-1-(4-Chloro-phenyl)-2-(4-{1-hydroxy-1-[1-(3,3,3-trifluoro-propyl)-azetidin-3-yl]-ethyl}-phenyl)-7-isopropoxy-6-methoxy-1,4-dihydro-2H-isoquinolin-3-one] | 0.0363 | 40.5 |
| COc1cc2c(cc1OC(C)C)[C@H](c1ccc(Cl)cc1)N(c1ccc(C3(O)CN(S(C)(=O)=O)C3)cc1)C(=O)C2 [Example 62, (S)-1-(4-Chloro-phenyl)-2-[4-(3-hydroxy-1-methanesulfonyl-azetidin-3-yl)-phenyl]-7-isopropoxy-6-methoxy-1,4-dihydro-2H-isoquinolin-3-one] | 0.342 | 77 |
| COc1cc2c(cc1OC(C)C)[C@H](c1ccc(Cl)cc1)N(c1ccc([C@@](C)(O)c3ccc(NC(C)=O)cc3)cc1)C(=O)C2 [Example 26, N-[4-((S)-1-{4-[(S)-1-(4-Chloro-phenyl)-7-isopropoxy-6-methoxy-3-oxo-3,4-dihydro-1H-isoquinolin-2-yl]-phenyl}-1-hydroxy-ethyl)-phenyl]-acetamide] | 0.0043 | 8.25 |
| COc1cc2c(cc1OC(C)C)[C@H](c1ccc(Cl)cc1)N(c1ccc(C(C)(O)C3CCOC3)cc1)C(=O)C2 (stereo partly drawn) [Example 48, (S)-1-(4-Chloro-phenyl)-2-{4-[1-hydroxy-1-(tetrahydro-furan-3-yl)-ethyl]-phenyl}-7-isopropoxy-6-methoxy-1,4-dihydro-2H-isoquinolin-3-one] | 0.0432 | 44.5 |
| COc1cccc(C(O)c2ccc(N3C(=O)Cc4cc(OC)c(OC(C)C)cc4[C@@H]3c3ccc(Cl)cc3)cc2)c1 (stereo partly drawn) [Example 2, (S)-1-(4-Chloro-phenyl)-2-{4-[hydroxy-(3-methoxy-phenyl)-methyl]-phenyl}-7-isopropoxy-6-methoxy-1,4-dihydro-2H-isoquinolin-3-one] | 0.0868 | 87 |
| COc1cc2c(cc1OC(C)C)[C@H](c1ccc(Cl)cc1)N(c1ccc(C(C)(O)c3ccc(NC(C)=O)cc3)nc1)C(=O)C2 (stereo partly drawn) [Example 24, N-[4-(1-{5-[(S)-1-(4-Chloro-phenyl)-7-isopropoxy-6-methoxy-3-oxo-3,4-dihydro-1H-isoquinolin-2-yl]-pyridin-2-yl}-1-hydroxy-ethyl)-phenyl]-acetamide] | 0.0544 | 61.3 |
| COc1cc2c(cc1OC(C)C)[C@H](c1ccc(Cl)cc1)N(c1ccc([C@](C)(O)C34CCC(CC3)O4)cc1)C(=O)C2 (single isomer, unassigned) [Example 137] | 0.145 | 25.7 |
| COc1cc2c(cc1OC(C)C)[C@H](c1ccc(Cl)cc1)N(c1ccc([C@](C)(O)C3CCN(C)CC3)cc1)C(=O)C2 (single isomer, unassigned) [Example 95] | 0.129 | 49.9 |
| CNC(=O)N1CC(C(C)(O)c2ccc(N3C(=O)Cc4cc(OC)c(OC(C)C)cc4[C@@H]3c3ccc(Cl)cc3)cc2)C1 (stereo partly drawn) [Example 67, 3-(1-{4-[(S)-1-(4-Chloro-phenyl)-7-isopropoxy-6-methoxy-3-oxo-3,4-dihydro-1H-isoquinolin-2-yl]-phenyl}-1-hydroxy-ethyl)-azetidine-1-carboxylic acid methylamide] | 0.0152 | 16.7 |
| COc1ccc(C(C)(O)c2ccc(N3C(=O)Cc4cc(OC)c(OC(C)C)cc4[C@@H]3c3ccc(Cl)cc3)cc2)cn1 (stereo partly drawn) [Example 23, (S)-1-(4-Chloro-phenyl)-2-{4-[1-hydroxy-1-(6-methoxy-pyridin-3-yl)-ethyl]-phenyl}-7-isopropoxy-6-methoxy-1,4-dihydro-2H-isoquinolin-3-one] | 0.0159 | 24.7 |
| COc1cc2c(cc1OC(C)C)[C@H](c1ccc(Cl)cc1)N(c1ccc(C(C)(O)c3ccncc3)cn1)C(=O)C2 (stereo partly drawn) [Example 12, (S)-1-(4-Chloro-phenyl)-2-[5-(1-hydroxy-1-pyridin-4-yl-ethyl)-pyridin-2-yl]-7-isopropoxy-6-methoxy-1,4-dihydro-2H-isoquinolin-3-one] | 0.0195 | 23.9 |
| COc1cc2c(cc1OC(C)C)[C@H](c1ccc(Cl)cc1)N(c1ccc(C(C)(O)c3cccnc3)cn1)C(=O)C2 (stereo partly drawn) [Example 15, (S)-1-(4-Chloro-phenyl)-2-[5-(1-hydroxy-1-pyridin-3-yl-ethyl)-pyridin-2-yl]-7-isopropoxy-6-methoxy-1,4-dihydro-2H-isoquinolin-3-one] | 0.0404 | 61.1 |

Continued, values first:

| IC50 [1] [µM] | IC50 [2] [µM] | SMILES |
| --- | --- | --- |
| 0.0043 | 4.95 | COc1cc2c(cc1OC(C)C)[C@H](c1ccc(Cl)cc1)N(c1ccc(C(C)(O)C3CCN(C(N)=O)CC3)cc1)C(=O)C2 (stereo partly drawn) [Example 75, 4-(1-{4-[(S)-1-(4-Chloro-phenyl)-7-isopropoxy-6-methoxy-3-oxo-3,4-dihydro-1H-isoquinolin-2-yl]-phenyl}-1-hydroxy-ethyl)-piperidine-1-carboxylic acid amide] |
| 0.0032 | 2.9 | COc1cc2c(cc1OC(C)C)[C@H](c1ccc(Cl)cc1)N(c1ccc(C(C)(O)C3CCN(C(=O)N(C)C)CC3)cc1)C(=O)C2 (stereo partly drawn) [Example 82, 4-(1-{4-[(S)-1-(4-Chloro-phenyl)-7-isopropoxy-6-methoxy-3-oxo-3,4-dihydro-1H-isoquinolin-2-yl]-phenyl}-1-hydroxy-ethyl)-piperidine-1-carboxylic acid dimethylamide] |
| 0.105 | 36.7 | COc1cc2c(cc1OC(C)C)[C@H](c1ccc(Cl)cc1)N(c1ccc([C@](C)(O)C3CCN(C(C)=O)CC3)cc1)C(=O)C2 (single isomer, unassigned) [Example 54] |
| 0.0056 | 5.91 | COc1cc2c(cc1OC(C)C)[C@H](c1ccc(Cl)cc1)N(c1ccc(C(C)(O)C3CCN(C(=O)NC(C)C)CC3)cc1)C(=O)C2 (stereo partly drawn) [Example 84, 4-(1-{4-[(S)-1-(4-Chloro-phenyl)-7-isopropoxy-6-methoxy-3-oxo-3,4-dihydro-1H-isoquinolin-2-yl]-phenyl}-1-hydroxy-ethyl)-piperidine-1-carboxylic acid isopropylamide] |
| 0.0052 | 5.11 | COc1cc2c(cc1OC(C)C)[C@H](c1ccc(Cl)cc1)N(c1ccc(C(C)(O)C3CCN(C(=O)C4CC4)CC3)cc1)C(=O)C2 (some centres unmarked) [Example 80] |
| 0.0287 | 23.9 | COc1cc2c(cc1OC(C)C)[C@H](c1ccc(Cl)cc1)N(c1ccc(C(C)(O)C3CCN(C(=O)C(F)F)CC3)cc1)C(=O)C2 (stereo partly drawn) [Example 87, (S)-1-(4-Chloro-phenyl)-2-(4-{1-[1-(2,2-difluoro-acetyl)-piperidin-4-yl]-1-hydroxy-ethyl}-phenyl)-7-isopropoxy-6-methoxy-1,4-dihydro-2H-isoquinolin-3-one] |
